# Source: ChEMBL document CHEMBL3885861, “Open TG-GATES”
# Species on record: Rattus norvegicus
# Assay: Open TG-GATES - Regimen: Single
# Format: toxicity, organism-based, Sprague-Dawley
# Set-up: regimen Single, gender Male, age 6 weeks
# Settings: in vivo, po, route gavage; for Bas / Eos / Fbg / Hb / Ht / Lym / MCH / MCHC / MCV / Mono / Neu / PT / Plat / RBC / Ret / WBC: tissue Blood; for KIDNEY_L / KIDNEY_R / KIDNEY_TOTAL: tissue Kidney; for LIVER: tissue Liver; for ALP / ALT / AST / BUN / CRE / Ca / Cl / DBIL / GLC / IP / K / LDH / Na / PL / RALB / TBIL / TC / TG / TP / gamma-GTP: tissue Plasma
# [1] = 0 mg/kg, 3 h, dose level Control
# [2] = 0 mg/kg, 6 h, dose level Control
# [3] = 0 mg/kg, 9 h, dose level Control
# [4] = 0 mg/kg, 24 h, dose level Control
structure (smiles),measurement,setting,value
CN(C)CCCN1c2ccccc2Sc2ccc(Cl)cc21 [CHLORPROMAZINE],TERMINAL_BW,[1],223.8 g
same,Bas,[1],0%
same,Eos,[1],1.2%
same,Fbg,[1],223.6 mg/dL
same,Hb,[1],13.7 g/dL
same,Ht,[1],39.3%
same,Lym,[1],76%
same,MCH,[1],21.8 pg
same,MCHC,[1],34.7%
same,MCV,[1],62.7 fL
same,Mono,[1],2.6%
same,Neu,[1],18.8%
same,PT,[1],12.5 s
same,Plat,[1],116.1 x10_4/uL
same,RBC,[1],627.6 x10_4/ul
same,Ret,[1],7.6%
same,WBC,[1],91.8 x10_2/uL
same,KIDNEY_L,[1],1 g
same,KIDNEY_R,[1],1 g
same,KIDNEY_TOTAL,[1],2 g
same,LIVER,[1],10 g
same,ALP,[1],1021.8 IU/L
same,ALT,[1],37.6 IU/L
same,AST,[1],78.8 IU/L
same,BUN,[1],12.2 mg/dL
same,CRE,[1],0.4 mg/dL
same,Ca,[1],10.8 mg/dL
same,Cl,[1],103.2 meq/L
same,DBIL,[1],0.064 mg/dL
same,GLC,[1],190 mg/dL
same,IP,[1],8.5 mg/dL
same,K,[1],4 meq/L
same,LDH,[1],227.2 IU/L
same,Na,[1],141.6 meq/L
same,PL,[1],131.8 mg/dL
same,RALB,[1],3.5 g/dL
same,TBIL,[1],0.1 mg/dL
same,TC,[1],67.6 mg/dL
same,TG,[1],62.6 mg/dL
same,TP,[1],5.5 g/dL
same,gamma-GTP,[1],1 IU/L
same,TERMINAL_BW,[2],217.9 g
same,Bas,[2],0%
same,Eos,[2],1%
same,Fbg,[2],227.4 mg/dL
same,Hb,[2],13.4 g/dL
same,Ht,[2],38.8%
same,Lym,[2],77.2%
same,MCH,[2],21.1 pg
same,MCHC,[2],34.5%
same,MCV,[2],61.2 fL
same,Mono,[2],2.8%
same,Neu,[2],17.4%
same,PT,[2],12.5 s
same,Plat,[2],113.2 x10_4/uL
same,RBC,[2],634 x10_4/ul
same,Ret,[2],7.6%
same,WBC,[2],104.6 x10_2/uL
same,KIDNEY_L,[2],1 g
same,KIDNEY_R,[2],1 g
same,KIDNEY_TOTAL,[2],1.9 g
same,LIVER,[2],9.2 g
same,ALP,[2],816 IU/L
same,ALT,[2],33.6 IU/L
same,AST,[2],79.8 IU/L
same,BUN,[2],9 mg/dL
same,CRE,[2],0.4 mg/dL
same,Ca,[2],10.7 mg/dL
same,Cl,[2],103.4 meq/L
same,DBIL,[2],0.066 mg/dL
same,GLC,[2],190 mg/dL
same,IP,[2],9.4 mg/dL
same,K,[2],3.9 meq/L
same,LDH,[2],221.2 IU/L
same,Na,[2],141.8 meq/L
same,PL,[2],133.6 mg/dL
same,RALB,[2],3.4 g/dL
same,TBIL,[2],0.1 mg/dL
same,TC,[2],75.8 mg/dL
same,TG,[2],56.2 mg/dL
same,TP,[2],5.4 g/dL
same,gamma-GTP,[2],0.8 IU/L
same,TERMINAL_BW,[3],219.8 g
same,Bas,[3],0.4%
same,Eos,[3],0.6%
same,Fbg,[3],227 mg/dL
same,Hb,[3],13.2 g/dL
same,Ht,[3],38.2%
same,Lym,[3],78.8%
same,MCH,[3],21.7 pg
same,MCHC,[3],34.5%
same,MCV,[3],63 fL
same,Mono,[3],2.6%
same,Neu,[3],16.6%
same,PT,[3],12.6 s
same,Plat,[3],122.8 x10_4/uL
same,RBC,[3],606.2 x10_4/ul
same,Ret,[3],8.3%
same,WBC,[3],82.3 x10_2/uL
same,KIDNEY_L,[3],1 g
same,KIDNEY_R,[3],1 g
same,KIDNEY_TOTAL,[3],2 g
same,LIVER,[3],9 g
same,ALP,[3],922.2 IU/L
same,ALT,[3],30.6 IU/L
same,AST,[3],68 IU/L
same,BUN,[3],11.4 mg/dL
same,CRE,[3],0.4 mg/dL
same,Ca,[3],10.7 mg/dL
same,Cl,[3],104 meq/L
same,DBIL,[3],0.066 mg/dL
same,GLC,[3],203.4 mg/dL
same,IP,[3],10.2 mg/dL
same,K,[3],3.8 meq/L
same,LDH,[3],180.2 IU/L
same,Na,[3],141.8 meq/L
same,PL,[3],132.6 mg/dL
same,RALB,[3],3.3 g/dL
same,TBIL,[3],0.1 mg/dL
same,TC,[3],69.8 mg/dL
same,TG,[3],59.2 mg/dL
same,TP,[3],5.4 g/dL
same,gamma-GTP,[3],1 IU/L
same,TERMINAL_BW,[4],233.7 g
same,Bas,[4],0.8%
same,Eos,[4],1.2%
same,Fbg,[4],230.4 mg/dL
same,Hb,[4],13 g/dL
same,Ht,[4],38.5%
same,Lym,[4],79%
same,MCH,[4],21.2 pg
same,MCHC,[4],33.8%
same,MCV,[4],62.8 fL
same,Mono,[4],3%
same,Neu,[4],15.8%
same,PT,[4],11.7 s
same,Plat,[4],133.9 x10_4/uL
same,RBC,[4],613.8 x10_4/ul
same,Ret,[4],7.4%
same,WBC,[4],115.9 x10_2/uL
same,KIDNEY_L,[4],1 g
same,KIDNEY_R,[4],1 g
same,KIDNEY_TOTAL,[4],2 g
same,LIVER,[4],10.7 g
same,ALP,[4],1074.4 IU/L
same,ALT,[4],34.8 IU/L
same,AST,[4],73.8 IU/L
same,BUN,[4],16 mg/dL
same,CRE,[4],0.5 mg/dL
same,Ca,[4],10.8 mg/dL
same,Cl,[4],103.8 meq/L
same,DBIL,[4],0.058 mg/dL
same,GLC,[4],203 mg/dL
same,IP,[4],7 mg/dL
same,K,[4],4 meq/L
same,LDH,[4],192.2 IU/L
same,Na,[4],141.2 meq/L
same,PL,[4],140 mg/dL
same,RALB,[4],3.4 g/dL
same,TBIL,[4],0.1 mg/dL
same,TC,[4],78.6 mg/dL
same,TG,[4],80.2 mg/dL
same,TP,[4],5.6 g/dL
same,gamma-GTP,[4],1 IU/L
same,TERMINAL_BW,"45 mg/kg, 3 h, dose level Low",220 g
same,Bas,"45 mg/kg, 3 h, dose level Low",0%
same,Eos,"45 mg/kg, 3 h, dose level Low",1%
same,Fbg,"45 mg/kg, 3 h, dose level Low",221.8 mg/dL
same,Hb,"45 mg/kg, 3 h, dose level Low",12.5 g/dL
same,Ht,"45 mg/kg, 3 h, dose level Low",36.7%
same,Lym,"45 mg/kg, 3 h, dose level Low",79.4%
same,MCH,"45 mg/kg, 3 h, dose level Low",21 pg
same,MCHC,"45 mg/kg, 3 h, dose level Low",33.9%
same,MCV,"45 mg/kg, 3 h, dose level Low",61.9 fL
same,Mono,"45 mg/kg, 3 h, dose level Low",2.2%
same,Neu,"45 mg/kg, 3 h, dose level Low",17%
same,PT,"45 mg/kg, 3 h, dose level Low",12.1 s
same,Plat,"45 mg/kg, 3 h, dose level Low",127.9 x10_4/uL
same,RBC,"45 mg/kg, 3 h, dose level Low",594 x10_4/ul
same,Ret,"45 mg/kg, 3 h, dose level Low",7.8%
same,WBC,"45 mg/kg, 3 h, dose level Low",55.8 x10_2/uL
same,KIDNEY_L,"45 mg/kg, 3 h, dose level Low",0.9 g
same,KIDNEY_R,"45 mg/kg, 3 h, dose level Low",0.9 g
same,KIDNEY_TOTAL,"45 mg/kg, 3 h, dose level Low",1.8 g
same,LIVER,"45 mg/kg, 3 h, dose level Low",10.3 g
same,ALP,"45 mg/kg, 3 h, dose level Low",910.4 IU/L
same,ALT,"45 mg/kg, 3 h, dose level Low",31.6 IU/L
same,AST,"45 mg/kg, 3 h, dose level Low",66.4 IU/L
same,BUN,"45 mg/kg, 3 h, dose level Low",10.2 mg/dL
same,CRE,"45 mg/kg, 3 h, dose level Low",0.4 mg/dL
same,Ca,"45 mg/kg, 3 h, dose level Low",10.9 mg/dL
same,Cl,"45 mg/kg, 3 h, dose level Low",105.6 meq/L
same,DBIL,"45 mg/kg, 3 h, dose level Low",0.066 mg/dL
same,GLC,"45 mg/kg, 3 h, dose level Low",244.4 mg/dL
same,IP,"45 mg/kg, 3 h, dose level Low",10.2 mg/dL
same,K,"45 mg/kg, 3 h, dose level Low",3.8 meq/L
same,LDH,"45 mg/kg, 3 h, dose level Low",210 IU/L
same,Na,"45 mg/kg, 3 h, dose level Low",144.8 meq/L
same,PL,"45 mg/kg, 3 h, dose level Low",151 mg/dL
same,RALB,"45 mg/kg, 3 h, dose level Low",3.5 g/dL
same,TBIL,"45 mg/kg, 3 h, dose level Low",0.1 mg/dL
same,TC,"45 mg/kg, 3 h, dose level Low",77.8 mg/dL
same,TG,"45 mg/kg, 3 h, dose level Low",77 mg/dL
same,TP,"45 mg/kg, 3 h, dose level Low",5.4 g/dL
same,gamma-GTP,"45 mg/kg, 3 h, dose level Low",1 IU/L
same,TERMINAL_BW,"45 mg/kg, 6 h, dose level Low",214.5 g
same,Bas,"45 mg/kg, 6 h, dose level Low",0.2%
same,Eos,"45 mg/kg, 6 h, dose level Low",1%
same,Fbg,"45 mg/kg, 6 h, dose level Low",221.8 mg/dL
same,Hb,"45 mg/kg, 6 h, dose level Low",12.5 g/dL
same,Ht,"45 mg/kg, 6 h, dose level Low",36.9%
same,Lym,"45 mg/kg, 6 h, dose level Low",69.4%
same,MCH,"45 mg/kg, 6 h, dose level Low",21 pg
same,MCHC,"45 mg/kg, 6 h, dose level Low",34%
same,MCV,"45 mg/kg, 6 h, dose level Low",62 fL
same,Mono,"45 mg/kg, 6 h, dose level Low",2.2%
same,Neu,"45 mg/kg, 6 h, dose level Low",26%
same,PT,"45 mg/kg, 6 h, dose level Low",12 s
same,Plat,"45 mg/kg, 6 h, dose level Low",129.9 x10_4/uL
same,RBC,"45 mg/kg, 6 h, dose level Low",596.2 x10_4/ul
same,Ret,"45 mg/kg, 6 h, dose level Low",8.2%
same,WBC,"45 mg/kg, 6 h, dose level Low",48 x10_2/uL
same,KIDNEY_L,"45 mg/kg, 6 h, dose level Low",1 g
same,KIDNEY_R,"45 mg/kg, 6 h, dose level Low",0.9 g
same,KIDNEY_TOTAL,"45 mg/kg, 6 h, dose level Low",1.9 g
same,LIVER,"45 mg/kg, 6 h, dose level Low",9.4 g
same,ALP,"45 mg/kg, 6 h, dose level Low",861 IU/L
same,ALT,"45 mg/kg, 6 h, dose level Low",29.6 IU/L
same,AST,"45 mg/kg, 6 h, dose level Low",68.4 IU/L
same,BUN,"45 mg/kg, 6 h, dose level Low",8.6 mg/dL
same,CRE,"45 mg/kg, 6 h, dose level Low",0.4 mg/dL
same,Ca,"45 mg/kg, 6 h, dose level Low",10.5 mg/dL
same,Cl,"45 mg/kg, 6 h, dose level Low",106.4 meq/L
same,DBIL,"45 mg/kg, 6 h, dose level Low",0.07 mg/dL
same,GLC,"45 mg/kg, 6 h, dose level Low",249.6 mg/dL
same,IP,"45 mg/kg, 6 h, dose level Low",10.8 mg/dL
same,K,"45 mg/kg, 6 h, dose level Low",3.6 meq/L
same,LDH,"45 mg/kg, 6 h, dose level Low",219.6 IU/L
same,Na,"45 mg/kg, 6 h, dose level Low",144.8 meq/L
same,PL,"45 mg/kg, 6 h, dose level Low",138.2 mg/dL
same,RALB,"45 mg/kg, 6 h, dose level Low",3.4 g/dL
same,TBIL,"45 mg/kg, 6 h, dose level Low",0.1 mg/dL
same,TC,"45 mg/kg, 6 h, dose level Low",79.2 mg/dL
same,TG,"45 mg/kg, 6 h, dose level Low",19.2 mg/dL
same,TP,"45 mg/kg, 6 h, dose level Low",5.4 g/dL
same,gamma-GTP,"45 mg/kg, 6 h, dose level Low",1 IU/L
